This passage reports EC50 and IC50 results from ChEMBL document CHEMBL1133379, “Bioisosteric modification of PETT-HIV-1 RT-inhibitors: synthesis and biological evaluation” (Bioorg Med Chem Lett, 2000).

The test system of experiment [1] is Human immunodeficiency virus 1. As to the kind of experiment: Antiviral activity against HIV-1 virus. The format is functional. The settings on record: read-out: ED50 (the source's name).
Experiment [2] concerns the target Human immunodeficiency virus type 1 reverse transcriptase (Human immunodeficiency virus 1, UniProt Q72547). As to the kind of experiment: Inhibition of wild-type HIV-1 Reverse transcriptase.

For `COc1ccccc1CCNC(=S)Nc1nccs1`, the EC50 in experiment [1] is 400 nM.

As for `COc1cccc(C(=O)CC/N=C(\S)Nc2ccc(Br)cn2)c1`, the EC50 in experiment [1] was 911 nM. The same compound displayed an IC50 in experiment [2] of 80 nM.

As for `O=C(CCNC(=S)Nc1ccc(Br)cn1)c1ccccc1`, the EC50 in experiment [1] is 36 nM. Further, the IC50 in experiment [2] was below 27 nM.

On to `COc1ccccc1C(=O)CCNC(=S)Nc1ccc(Br)cn1`, for which, in experiment [1], the EC50 worked out at 76 nM. Further, the IC50 in experiment [2] came to 3 nM.

`CCOc1ccc(F)c(CCNC(=O)Nc2ccc(Br)cn2)c1Cl`: the EC50 in experiment [1] is 50 nM.

Regarding `O=S(=O)(NCCc1ccccc1)Nc1cncc(Cl)c1`, the EC50 in experiment [1] was above 100000 nM. In experiment [2], the IC50 was above 10000 nM.

`N=C(Nc1ccc(Br)cn1)N[C@@H]1C[C@@H]1c1ccccc1`: in experiment [1], the EC50 worked out at 1200 nM. The compound further registered an IC50 in experiment [2] of 180 nM.

For the compound `O=C(CCNC(=S)Nc1ccc(Br)cn1)c1ccccc1Cl`, the EC50 in experiment [1] is 100 nM. In experiment [2], the midpoint of inhibition, the IC50, lay at 10 nM.

In the case of `Fc1cccc(F)c1CC/N=C(\S)Nc1ccc(Br)cn1`, the EC50 in experiment [1] was 10 nM.

Take `O=C(CC/N=C(\S)Nc1ccc(Cl)cn1)c1c(F)cccc1F`: the EC50 in experiment [1] came out at 28 nM. In experiment [2], this compound yielded an IC50 of 6 nM.

Regarding `S=C(Nc1ccc(Br)cn1)N[C@@H]1C[C@@H]1c1ccccc1`, in experiment [1], the EC50 is 20 nM. In experiment [2], this compound came in with an IC50 of 8 nM.

With `S=C(NCCc1ccccc1)Nc1ccc(Cl)cn1`, the EC50 in experiment [1] was determined as 30 nM. In experiment [2], this compound registered an IC50 of 3 nM.

With `O=C(NCCC(=O)c1ccccc1F)Nc1ccc(Br)cn1`, the EC50 in experiment [1] worked out at 201 nM. Besides, in experiment [2], the IC50 is 54 nM.

`N#CN/C(=N\c1ccc(Cl)cn1)NCCc1ccccc1`: the EC50 in experiment [1] was above 100000 nM. This compound also gave a half-inhibitory concentration (IC50) in experiment [2] above 10000 nM.

Consider `O=C(CC/N=C(\S)Nc1ccc(Br)cn1)c1ccc(F)cc1`, for which the EC50 in experiment [1] is 300 nM. For the same compound, the IC50 in experiment [2] is 47 nM.

`COc1ccccc1CCN=C(NC#N)Nc1nccs1`: the EC50 in experiment [1] was above 100000 nM. Further, in experiment [2], the IC50 is above 10000 nM.

As for `O=C(CC/N=C(\S)Nc1ccc(Br)cn1)c1ccccc1F`, the EC50 in experiment [1] stood at 9 nM. This compound showed an IC50 in experiment [2] of 4 nM.

As for `O=C(CC/N=C(\S)Nc1ccc(Br)cn1)c1cc(F)ccc1F`, the EC50 in experiment [1] came to 67 nM. This compound yielded an IC50 in experiment [2] below 25 nM.

For `O=C(CCNC(=S)Nc1ccc(Br)cn1)c1c(F)cccc1F`, in experiment [1], the EC50 worked out at 50 nM. Also, in experiment [2], the IC50 came to 3 nM.

Take `CCOc1ccc(F)c(CC/N=C(\N)Nc2ccc(Br)cn2)c1Cl`: the EC50 in experiment [1] came to 1000 nM. The IC50 in experiment [2] is 400 nM.

Regarding `CCOc1ccc(F)c(CCNC(=S)Nc2ccc(Br)cn2)c1Cl` [THIOUREA, N-(5-BROMO-2-PYRIDINYL)-N'-(2-(2-CHLORO-3-ETHOXY-6-FLUOROPHENYL)ETHYL)-], the EC50 in experiment [1] was found to be 7 nM.
